Measurements taken from US5612363A, “N,N-di(aryl) cyclic urea derivatives as anti-coagulants” (Berlex Laboratories, Inc., priority 1995, dated 1997).
Residues, ends and D or L forms follow the SMILES beside them.

Tests used:
[1] = molecular target: T1, Human tissue plasminogen activator (tPA) (Two chains, Sigma) (Homo sapiens, UniProt P00750); test: In vitro chromogenic assay for tissue plasminogen activator (S2288 cleavage); assay type: biochemical; settings: assay buffer pH 7.5, ambient temperature; read-out: Km (substrate concentration equal to Km)
T1 construct: (tPA) (Two chains, Sigma); purchased Sigma
Procedure: (§1) The activities were determined as an initial rate of cleavage of the peptide p-nitroanilide by the enzyme. The cleavage product, p-nitroaniline, absorbs at 405 nm with a molar extinction coefficient of 9920M^-1 cm^-1.
(§2) 50 mM TrisHCl, 150 mM NaCl, 2.5 mM CaCl2, and 0.1% polyethylene glycol 6000, pH 7.5.
3. Human tissue plasminogen activator (tPA) (Two chains, Sigma) stock solution: 1 mg/mL, stored at -80° C. (working solution (2×): 1361 ng/mL in assay buffer, prepare prior to use).
3. S2288 (tPA assay) stock solution: 10 mM in dH2 O, stored at 4° C. (working solution (4×): 1484 μM in assay buffer). (All substrate working solutions were prepared on assay […].)
Assays were performed in 96-well microtiter plates in a total volume of 200 μl. […] Concentrations of the standard inhibitor compound in the assay were from 5 μM to 0.021 μM in 1 to 3 dilution. Concentration of the test compounds in the assay typically were from 10 μM to 0.041 μM in 1 to 3 dilution. For potent test compounds, the concentrations used in the factor Xa assay were further diluted 100 fold (100 nM to 0.41 nM) or 1000 fold (10 nM to 0.041 nM). All substrate concentrations used are equal to their Km values under the present assay conditions. Assays were performed at ambient temperature. […]
(§3) The enzyme kinetics were measured at 405 nm, at 10 seconds interval, for five minutes in a THERMOmax plate reader at ambient temperature.

Human thrombin = molecular target: T2, Human thrombin (Homo sapiens, UniProt P00734); test: In vitro chromogenic assay for thrombin (S2302 cleavage); assay type: biochemical; settings: assay buffer pH 7.5, ambient temperature; read-out: Km (substrate concentration equal to Km)
T2 construct: Human thrombin stock solution; purchased Enzyme Research Lab
Procedure: as §1, §2
2. Human thrombin stock solution: Stored at -80° C. (working solution (2×): 1200 ng/mL or 40 nM in assay buffer, prepare prior to use).
1. S2222 (FXa assay) stock solution: 6 mM in dH2 O, store at 4° C. (working solution (4×): 656 μM in assay buffer). p1 2. S2302 (Thrombin assay) stock solution: 10 mM in dH2 O, stored at 4° C. (working solution (4×): 1200 μM in assay buffer).
Assays were performed in 96-well microtiter plates in a total volume of 200 μl. […] Concentrations of the standard inhibitor compound in the assay were from 5 μM to 0.021 μM in 1 to 3 dilution. Concentration of the test compounds in the assay typically were from 10 μM to 0.041 μM in 1 to 3 dilution. […]
as §3
Enzyme rates were calculated as mOD/min based on the first two minutes readings. The IC50 values were determined by fitting the data to the log-logit equation (linear) or the Morrison equation (non-linear) with an EXCEL spread-sheet. […]

T1 sequence (P00750 311-562 limits assumed): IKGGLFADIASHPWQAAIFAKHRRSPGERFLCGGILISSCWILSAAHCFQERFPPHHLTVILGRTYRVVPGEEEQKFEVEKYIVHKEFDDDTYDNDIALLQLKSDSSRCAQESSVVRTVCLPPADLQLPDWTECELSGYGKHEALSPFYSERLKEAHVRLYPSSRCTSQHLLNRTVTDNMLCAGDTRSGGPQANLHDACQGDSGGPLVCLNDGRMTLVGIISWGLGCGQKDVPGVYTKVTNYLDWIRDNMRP
T1 sequence (P00750 36-310 partner limits assumed): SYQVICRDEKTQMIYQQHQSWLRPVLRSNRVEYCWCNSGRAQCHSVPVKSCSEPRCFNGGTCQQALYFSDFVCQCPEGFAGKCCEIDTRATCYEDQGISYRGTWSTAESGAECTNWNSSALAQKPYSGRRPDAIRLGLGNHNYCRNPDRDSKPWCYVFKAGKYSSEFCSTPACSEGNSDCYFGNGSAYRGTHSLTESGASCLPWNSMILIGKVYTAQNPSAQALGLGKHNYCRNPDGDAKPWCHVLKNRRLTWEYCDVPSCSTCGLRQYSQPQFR

SMILES	Km [1] [µM]	Km (Human thrombin) [µM]
CC[C@@H](C)[C@@H](N)C(=O)N1CCC[C@H]1C(=O)N[C@@H](CCCN=C(N)N)C(=O)Nc1ccc([N+](=O)[O-])cc1 [Example S2288] (HELM PEPTIDE1{[dI].P.R.[O=[N+]([O-])c1ccc(N[*:1])cc1]}$$$$V2.0)	371	
N=C(N)NCCC[C@H](NC(=O)[C@H](Cc1ccccc1)NC(=O)[C@H]1CCCN1)C(=O)Nc1ccc([N+](=O)[O-])cc1 [Example S2302] (HELM PEPTIDE1{[dP].F.R.[O=[N+]([O-])c1ccc(N[*:1])cc1]}$$$$V2.0)		300
